Measured values: PMC9286045 (Journal of Peptide Science, 2021)
Several values for one entry are separate records, joined by “and”; a condition that tells them apart may be missing. Equal values may be shown once. Read-outs that look alike come from different tables or passages of the source. Numbered stars: 1 amine (or outer) side, 2 acyl side, 3 side chain; on linkers, the order of the positions; unused ones are H or OH. Bridge positions count the residues as written; N and C are the ends. Square brackets hold non-standard residues; d marks the D form. Peptide text beside a SMILES is read from it. Abu(4-yl) = O=C([C@H](CC[*:3])N[*:1])[*:2]; X1 = O=C([C@@H](O)CS[*:2])[*:1]; X2 = O=C(CCC[*:2])[*:1]

Key:
uterus = conditions: cited from earlier work
[1] = system: OXT-receptor compartment of the potassium depolarized rat myometrium; assay: Fragmented inactivation model of GOT and DGOT (oil-immersion time–response data); type: in vitro ADME; conditions: for κ AM (rate constant of residual clearance) / κ c (rate constant of ester hydrolysis [Glu(OMe)^4]‐X → [Glu^4]‐X): K+-depolarized rat myometrium, oil-immersion, arithmetic mean ± SD; for κ AM (rate constant of residual clearance): assumption κ A ≈ κ M, runs in parentheses; for κ c (rate constant of ester hydrolysis [Glu(OMe)^4]‐X → [Glu^4]‐X): nonlinear regression Equation 17, number of computation runs in parentheses, 95% confidence limits in < >; for Δκ AM: difference of mean values κ AM (GOT) − κ AM (DGOT), expected rate constant of N-terminal (aminopeptidase) splitting; for Estimates of κ: κ AM + κ c: sum of fragments
Text: This is an alternative to model represented by Equation 12b, whereε A (t), ε M (t) are response fractions of the respective primary agents and of its active metabolite(s) (16a) ε˙At=−κc+κAεAt, (16b) ε˙Mt=κcεAt−κMεMt.
Figure 6 depicts the proposed reaction scheme.
Δ α = α M /α A is the standardised biological activity (e.g., in IU/mg). Exponential constants for GOT and DGOT were obtained by the nonlinear regression analysis using numeric procedures described above and are summarized in Table 3.

[2] = system: OXT-receptor compartment of the potassium depolarized rat myometrium; assay: Oil-immersion (stopped-transport) and washout time–response experiments on myometrium strips; conditions: for Cumulative clearance k r + κ / k r (transport rate constant between receptor compartment and aqueous medium) / κ Observed (irreversible clearance rate constant in the receptor compartment): K+-depolarized rat myometrium strip ex vivo, 30°C, arithmetic mean ± SD of computation runs; for Cumulative clearance k r + κ: washout decay phase; for k r (transport rate constant between receptor compartment and aqueous medium): from combined oil-immersion and washout data; for κ Observed (irreversible clearance rate constant in the receptor compartment): high potassium Ringer medium (Ca2+, Mg2+ 0.5 mM), oil-immersion decay phase, isometric tension, nonlinear regression; for κ (N) − κ (D): κ-difference of coherent N & D pairs, value shared by both peptides of the pair, C1,6OT/DC1,6OT pair uses predicted κ
Text: (§1) Female virgin Sprague–Dawley rats (body weight approximately 200 g) in natural oestrus (detected by vaginal smears) were sacrificed by decapitation, both uterus horns were dissected and the perimetrium was pulled off. Their middle sections (approximately 15 mm) were longitudinally cut into 3‐ to 4‐mm strips; the endometrium (the inward layer of the horns) was removed by scraping. In average, three strips of each animal (31 rats in total) were used in the experiments.
(§2) A stripe was mounted in an adapted annealed organ chamber (17 mm × 65 mm) with a ventilation inlet tube containing 10‐ml Munsick medium (see above) and attached to an isometric force transducer. The basic tension was adjusted to 10 ± 0.2 mN (1 gf, gram‐force). Measurements were carried out at 30°C under continuous ventilation with Carbogen gas (25% O2 + 5% CO2). […] Each strip used for stimulation by a single peptide (for concentration of stimulating agents, cf. Table 2). Oil‐immersion and washout experiments were carried out on different strips from the same animal. Stimulation runs (two to four per strip) for each peptide were repeated on strips of different rat uteri.
(§3) Tonic contraction of the depolarized myometrium strips in a high potassium Ringer organ bath medium[46] (concentration of Ca^2+ and of Mg^2+: 0.5 mM) was elicited by roughly equipotent concentrations of single peptides around their D 2 values (the concentration causes the half of the maximally attainable contraction in oestrogen‐dominated myometrium). After reaching a steady‐state level (stimulation phase), the medium was exchanged by a low viscosity paraffin oil (oil‐immersion phase) or alternatively by the peptide‐free bath medium (washout phase). The time‐tension profiles of the strip were recorded by an isometric force transducer (Statham strain gauge UC3).
(§4) We employed here its modified version focused on the comparison of clearance and transport rate constants (Figure 2). It consists virtually of two distribution spaces: the receptor compartment (subscript r; see Section 4) and the external aqueous tissue medium (w). The rate of mass transport of agents through the tissue‐medium interface (transport constants k r , k w ) is directly proportional to the rate constant of diffusion k (dimension: volume/time) and inversely proportional to the respective compartment volume V r , V w : for the receptor compartment k r = k/V r , for the medium k w = k/V w . The constant κ relates to the (irreversible) clearance rate from the receptor compartment (dimension: time^−1). The rate equations determining the time response of the peptide concentrations in the corresponding compartments (c r , c w ) are then (1a) c˙w=−kcw−cr/Vw, (1b) c˙r=kcw−cr/Vr−κcr, wherein dotted symbols denote first derivatives with respect to time t: x˙≡dx/dt . • In the stimulation phase, concentration c w is expected to be constant, c w = c 0 (and c˙w=0 ) within the time interval of stimulation; the integration of Equation 1b yields (2) crt=cr,∞1−e^−kr+κt, where c r,∞ is a steady state value of c r , (3) cr,∞≡limt→∞crt=c0kr/kr+κ.
(§5) • In the wash‐out decay phase, the concentration in the external medium (c w ) is kept zero by a quick perifusion; c r,∞ is the initial value (t = 0), i.e., a c r steady state value before termination of the stimulation phase, (4) crt=cr,∞e^−kr+κt.
(§6) The sum k r + κ stands for the cumulative clearance rate constant of the peptide in the receptor compartment. • The insertion of oil (oil‐immersion decay phase) reduces the volume V w to a small residual aqueous layer v w around the tissue; obviously, v w ≪ V w and the corresponding modified mass transport rate constant kw′=k/vw is very large, limvw→0kw′=∞ .

[3] = rats, cited from earlier work
[4] = human, in vivo; cited from earlier work
[5] = system: OXT-receptor compartment of the potassium depolarized rat myometrium
Text: as §1, §2, §3, §4, §5, §6

Cumulative clearance k r + κ [2]	k r (transport rate constant between receptor compartment and aqueous medium) [2]	κ Observed (irreversible clearance rate constant in the receptor compartment) [2]	κ (N) − κ (D) [2]	Compound	other results
–	–	–	–	[7‐glycine]‐oxytocin	ex vivo half‐life of uterotonic response as compared with oxytocin (uterus): considerably shorter half‐life
0.211 ± 0.027 min⁻¹	0.107 ± 0.034 min⁻¹	0.076 ± 0.018 min⁻¹ and 0.076 min⁻¹	0.092 min⁻¹	CC[C@H](C)[C@@H]1NC(=O)[C@H](Cc2ccc(O)cc2)NC(=O)CCSSC[C@@H](C(=O)N2CCC[C@H]2C(=O)N[C@@H](CC(C)C)C(=O)NCC(N)=O)NC(=O)[C@H](CC(N)=O)NC(=O)[C@H](CCC(=O)OC)NC1=O [DGOT, [1‐β‐mercaptopropionic acid, 4‐glutamic acid‐δ‐methylester]‐OXT]	κ AM (rate constant of residual clearance) [1]: 0.053 ± 0.014 (14) <0.045; 0.061> min^−1; κ c (rate constant of ester hydrolysis [Glu(OMe)^4]‐X → [Glu^4]‐X) [1]: 0.032 ± 0.011 (14) <0.025; 0.038> min^−1; Δκ AM [1]: 0.081 min⁻¹; Estimates of κ: κ AM + κ c [1]: 0.085 min⁻¹
0.254 ± 0.028 min⁻¹	0.137 ± 0.030 min⁻¹	0.137 ± 0.025 min⁻¹	0.088 min⁻¹	CC[C@H](C)[C@@H]1NC(=O)[C@H](Cc2ccc(O)cc2)NC(=O)[C@@H](N)CSSC[C@@H](C(=O)N2CCC[C@H]2C(=O)N[C@@H](CC(C)C)C(=O)NCC(N)=O)NC(=O)[C@H](CC(N)=O)NC(=O)[C@H](CCC(N)=O)NC1=O [OXT, Oxytocin, reference compound]	half‐life ([3]; regardless of gender and reproductive cycle): 1.65 min; elimination rate constant ([3]; related to the half-life of 1.65 min): 0.6 min⁻¹; half‐life in the blood plasma [4]: 1.5 to 8 min
0.194 ± 0.033 min⁻¹	0.139 ± 0.044 min⁻¹	0.042 ± 0.015 min⁻¹	0.076 min⁻¹	CC[C@H](C)[C@@H]1NC(=O)[C@H](Cc2ccc(O)cc2)NC(=O)CCSSC[C@@H](C(=O)N2CCC[C@H]2C(=O)N[C@@H](CC(C)C)C(=O)NNC(N)=O)NC(=O)[C@H](CC(N)=O)NC(=O)[C@H](CCC(N)=O)NC1=O [DAOT, [1‐β‐mercaptopropionic acid, 9‐azaglycine]‐OXT]	–
0.263 ± 0.009 min⁻¹	0.194 ± 0.011 min⁻¹	0.076 ± 0.005 min⁻¹	–	CC[C@H](C)[C@@H]1NC(=O)[C@H](Cc2ccc(O)cc2)NC(=O)[C@@H](N)CCCC[C@@H](C(=O)N2CCC[C@H]2C(=O)N[C@@H](CC(C)C)C(=O)NCC(N)=O)NC(=O)[C@H](CC(N)=O)NC(=O)[C@H](CCC(N)=O)NC1=O [C1,6OT, [1,6‐α′,α‐diaminosuberic acid]‐OXT]	–
0.278 ± 0.015 min⁻¹	0.158 ± 0.020 min⁻¹	0.118 ± 0.008 min⁻¹	0.076 min⁻¹	CC[C@H](C)[C@@H]1NC(=O)[C@H](Cc2ccc(O)cc2)NC(=O)[C@@H](N)CSSC[C@@H](C(=O)N2CCC[C@H]2C(=O)N[C@@H](CC(C)C)C(=O)NNC(N)=O)NC(=O)[C@H](CC(N)=O)NC(=O)[C@H](CCC(N)=O)NC1=O [AOT, [9‐Azaglycine]‐OXT]	–
0.289 ± 0.010 min⁻¹	0.139 ± 0.012 min⁻¹	0.141 ± 0.008 min⁻¹	–	CC[C@H](C)[C@@H]1NC(=O)[C@H](Cc2ccc(O)cc2)NC(=O)[C@@H](O)CSSC[C@@H](C(=O)N2CCC[C@H]2C(=O)N[C@@H](CC(C)C)C(=O)NCC(N)=O)NC(=O)[C@H](CC(N)=O)NC(=O)[C@H](CCC(N)=O)NC1=O [HOT, [1‐(2‐Hydroxy‐3‐β‐mercaptopropanoic acid)]‐OXT] (YIQNCPLG-NH2; linker N-5 via X1)	–
0.160 ± 0.021 min⁻¹	0.097 ± 0.025 min⁻¹	0.102 ± 0.016 min⁻¹	0.060 min⁻¹	CC[C@H](C)[C@@H]1NC(=O)[C@H](Cc2ccc(O)cc2)NC(=O)CCCSC[C@@H](C(=O)N2CCC[C@H]2C(=O)N[C@@H](CC(C)C)C(=O)NCC(N)=O)NC(=O)[C@H](CC(N)=O)NC(=O)[C@H](CCC(N)=O)NC1=O [DC1OT, [1,6‐(2‐Amino‐4‐thiasuberic acid)]‐OXT] (YIQNCPLG-NH2; linker N-5 via X2)	–
0.272 ± 0.037 min⁻¹	0.116 ± 0.041 min⁻¹	0.162 ± 0.032 min⁻¹	0.060 min⁻¹	CC[C@H](C)[C@@H]1NC(=O)[C@H](Cc2ccc(O)cc2)NC(=O)[C@@H](N)CCSC[C@@H](C(=O)N2CCC[C@H]2C(=O)N[C@@H](CC(C)C)C(=O)NCC(N)=O)NC(=O)[C@H](CC(N)=O)NC(=O)[C@H](CCC(N)=O)NC1=O [Peptide C1OT, [6,1‐Cystathionine]‐OXT] (H-[Abu(4-yl)]YIQNCPLG-NH2; thioether 1-6)	–
–	–	–	–	[6,1‐(2‐Amino‐4‐thiasuberic acid)]‐OXT [DC6OT]	Cumulative clearance k r + κ [5]: 0.147 ± 0.015 min⁻¹; κ Observed (irreversible clearance rate constant in the receptor compartment) [5]: 0.105 ± 0.008 min⁻¹
0.267 min⁻¹	0.108 min⁻¹	0.166 min⁻¹	0.092 min⁻¹	CC[C@H](C)[C@@H]1NC(=O)[C@H](Cc2ccc(O)cc2)NC(=O)[C@@H](N)CSSC[C@@H](C(=O)N2CCC[C@H]2C(=O)N[C@@H](CC(C)C)C(=O)NCC(N)=O)NC(=O)[C@H](CC(N)=O)NC(=O)[C@H](CCC(=O)OC)NC1=O [GOT, [4‐Glutamic acid‐δ‐methylester]‐OXT]	κ AM (rate constant of residual clearance) [1]: 0.134 ± 0.025 (12) <0.132; 0.135> min^−1; κ c (rate constant of ester hydrolysis [Glu(OMe)^4]‐X → [Glu^4]‐X) [1]: 0.033 ± 0.012 (22) <0.028; 0.038> min^−1; Δκ AM [1]: 0.081 min⁻¹; Estimates of κ: κ AM + κ c [1]: 0.167 min⁻¹

Compound	Cumulative clearance k r + κ [2]	k r (transport rate constant between receptor compartment and aqueous medium) [2]	κ Observed (irreversible clearance rate constant in the receptor compartment) [2]	κ (N) − κ (D) [2]	other results
CC[C@H](C)[C@@H]1NC(=O)[C@H](Cc2ccc(O)cc2)NC(=O)CCSSC[C@@H](C(=O)N2CCC[C@H]2C(=O)N[C@@H](CC(C)C)C(=O)NCC(N)=O)NC(=O)[C@H](CC(N)=O)NC(=O)[C@H](CCC(N)=O)NC1=O [DOT, [1‐β‐mercaptopropionic acid]‐OXT]	0.176 ± 0.024 min⁻¹	0.149 ± 0.026 min⁻¹	0.049 ± 0.021 min⁻¹	0.088 min⁻¹	–
